# Read-outs that look alike come from different tables or passages of the source.
# Legend:
# in vivo [1] = settings: Wistar, rat; for bioavailability: F: absolute bioavailability
# Protocol: (§1) Each type of formulation was administered to a group of four rats.
# (§2) In particular, 4.2 mL of EU-CD formulation were administered to rats (500 mg/kg dose).
# (§3) In particular, 320 μL of EU-SL formulation were administered to rats (500 mg/kg dose).
# (§4) Free cinnamaldehyde (100 mg) was orally administered by gavage to rats kept fasting since 24 h. In particular, 95 μL of cinnamaldehyde (density = 1.05 g/mL) were dissolved in 905 μL of corn oil and administered to rats (400 mg/kg dose).
# (§5) The solid AC-GN formulation (14% w/w cinnamaldehyde) was mixed with palatable food in order to induce their oral intake by the rats kept fasting since 24 h. In particular, the rats assumed a dose of 100 mg of cinnamaldehyde (400 mg/kg) contained in 714 mg of AC-GN.
# (§6) After the administrations, blood (100 μL) and CSF samples (50 μL) were serially collected at fixed time points from each rat and treated as described above in order to quantify the compounds.
# (§7) In particular, all the AUC values referred to the bloodstream were calculated by the trapezoidal method within the last time point detected, and the remaining area was obtained as the ratio between the compound concentration detected at the last time point and the elimination constant (kel), which was obtained from the slope of the semilogarithmic plots (−slope × 2.3). The clearance (Cl) and distribution volume (Vd) values were calculated according to the non-compartmental model as the ratios “dose/AUC” and “Cl/kel”, respectively, where kel is the elimination constant obtained by the slope of semilogarithmic plot.
# in vivo [2] = settings: for Kp at 10 min: R: ratio of concentration between CSF and bloodstream at Tmax
# Protocol: (§8) A saline solution (0.9% NaCl) was added to a mixture of cinnamaldehyde (density = 1.05 g/mL) and Cremophor® RH 40 (1:1 v/v) in order to obtain a 12.5 mg/mL cinnamaldehyde emulsion in the presence of ethanol (10% of final volume). A group (n = 4) of male Wistar rats (200–250 g) fasted for 24 h was anesthetized during the experimental period and received 0.4 mL via a femoral intravenous infusion (rate = 0.2 mL/min; 2 min) of 12.5 mg/mL cinnamaldehyde emulsion (20 mg/kg cinnamaldehyde dose).
# (§9) At the end of the infusions and at fixed time points, CSF samples (50 μL) were withdrawn and blood samples (100 μL) were collected. The CSF was withdrawn using the cisternal puncture method described by van den Berg et al., which requires a single needle stick and allows the collection of serials (40–50 μL) CSF samples that are virtually blood-free. A total volume of about a maximum of 150 μL of CSF/rat (i.e., three 50 μL samples/rat) was collected during the experimental session, choosing the time points (n = 3–5, taking into account a maximum of three collections per rat) in order to allow the restoring of the CSF physiological volume.
# (§10) The chromatographic apparatus consisted of a modular system (model LC-10 AD VD pump and model SPD-10A VP variable wavelength UV−vis detector; Shimadzu, Kyoto, Japan) and an injection valve with 20 μL sample loop (model 7725; Rheodyne, IDEX, Torrance, CA, USA). Separations were performed at room temperature on a 5 μm Hypersil BDS C-18 column (150 mm × 4.6 mm i.d.; Alltech Italia Srl, Milan, Italy) equipped with a guard column packed with the same Hypersil material. The volume injection was 10 μL. Data acquisition and processing were performed on a personal computer using CLASS-VP Software, version 7.2.1 (Shimadzu Italia, Milan, Italy).
# For CSF simulation, standard aliquots of balanced solution (Dulbecco’s phosphate buffer saline—DPBS—without calcium and magnesium) in the presence of 0.45 mg/mL BSA were used.
# in vivo [3] = settings: male, Wistar, rat, in vivo, iv
# Protocol: as §8, §9
# The samples were centrifuged at 12,500× g for 5 min, then about 300 μL of supernatant were withdrawn and further centrifuged. […] As a control, a blood sample (100 μL) was collected by each rat before the administrations of the drugs. The control samples were immediately added to 300 μL of ice-cold CH3CN in the absence of internal standard, then treated as described above.
# For cinnamaldehyde analysis the blood samples were hemolyzed immediately after their collection with 500 μL of ice-cold water, and then 50 μL of 10% sulfosalicylic acid and 50 μL of internal standard (100 μM carbazole dissolved in a water-methanol mixture 50:50 v/v) was added. The samples were extracted twice with 1 mL of water-saturated ethyl acetate, and, after centrifugation at 12,500× g for 10 min, the organic layer was reduced to dryness under a mild nitrogen stream at room temperature. Then, 200 μL of a water-acetonitrile mixture (50:50 v/v) were added, and after centrifugation, 10 μL were analyzed via HPLC (see below) for cinnamaldehyde detection. As a control, a blood sample (100 μL) was collected by each rat before the administration of the drug. The control samples were treated as described above in the absence of internal standard.
# as §7, §10
# The detector was set at 205 nm.
# [4] = rat, in vivo, cited from earlier work
# in vivo [5] = settings: rat, po
# Protocol: as §9, §1, §2, §3, §4, §5, §6
# PC12 cells [6] = settings: cited from earlier work
# PC12 cells [7] = experiment: Dopamine release from neuronal differentiated PC12 cells (ELISA); format: cell-based, rat; settings: 60 mM K^+, 5 min, control stimulus; baseline 393 ± 12 pg/mL
# Protocol: PC12 cell line (RRID:CVCL_0481), derived from rat adrenal gland pheochromocytoma, was a kind gift from Dr Federica Brugnoli from the Department of Translational Medicine, University of Ferrara, Ferrara (Italy). The cells were grown in RPMI-1640 (HiGlutaXL) medium (Microtech, Naples, Italy), supplemented with 100 µg/mL streptomycin and 100 IU/mL penicillin, 10% horse serum (HS), and 5% fetal bovine serum (FBS). PC12 cells were gently removed from the 4 µg/cm^2 collagen IV-coated flask with a rubber scraper, transferred as cell suspension into a Falcon tube and resuspended through a sterile tip to avoid any clumping, then split into separate flasks twice weekly. To differentiate neuronal phenotypes, PC12 cells were seeded in 4 µg/cm^2 collagen IV-coated 12-well plates at a density of 5000 cells/well, and they were then left to adhere to the well for 24 h. […] All the proliferative and differentiated cultures were maintained at 37 °C in a humidified 5% CO2 atmosphere.
# PC12 cells differentiated to neuronal-like phenotype in collagen IV-treated 12-well plates, were first synchronized all to the same circadian phase and cell cycle by a serum shock (50% HS and 50% DMEM HiGlutaXL) for 2 h at 37 °C [49] to achieve a synchronous release of dopamine. Synchronization medium was then aspirated off, cells were washed with 3 × 1 mL and equilibrated for 15 min at 37 °C in 1 mL of Krebs Ringer HEPES (KRH) physiological buffer, following the recipe of Mount et al. (25 mM HEPES/Tris, pH 7.4, 1.2 mM KH2PO4, 125 mM NaCl, 4.8 mM KCl, 1.2 mM MgSO4, 2.2 mM CaCl2, 5.6 mM glucose, 1.0 mM ascorbic acid, 10 µM pargyline, 1.0 µM nomifensine). […] To remove cell debris, all samples of 1 mL incubation KRH at the end of treatments were centrifuged at 1000× g for 20 min at 4 °C and stored at −20 °C until dopamine levels were determined by ELISA assay.
# Dopamine levels in 1 mL incubation KRH buffer were detected by means of an ELISA assay, based on the […] ELISA principle for detection of dopamine, following manufacturer’s instructions (IBL International, Hamburg, Germany–catalog no: RE59161; purchased from Tecan Italia S.r.I, Milan, Italy). After the substrate reaction, the intensity of the developed color was proportional to the amount of dopamine, detected at 450 nm using a microplate reader spectrophotometer (Sunrise® Microplate Reader, Tecan Trading AG, Männedorf, Switzerland). Results of samples were determined directly using the standard curve. Results are presented as mean ± SE values of four independent experiments. Data were plotted and analyzed with GraphPad software (Prism, version 7.0, San Diego, CA, USA).
# rats = settings: cited from earlier work
# [8] = male, Wistar, rat, in vivo, iv, 20 mg/kg
smiles,measurement,setting,value
"C=C(C)[C@H]1CC=C(C)CC1 [D-Limonene, D-limonene]",Tmax: time of Cmax in the bloodstream,in vivo [1],30 min
same,F: absolute bioavailability,in vivo [1]; po,7.04 ± 0.96%
same,bioavailability,in vivo [1]; po,7%
same,detection in the CSF of rats after intravenous administration,"in vivo [2]; iv 100 mg/kg, within 90 min after the end of infusion",not detected
same,AUC in CSF from the end of infusion to last time of detection,"in vivo [2]; male, Wistar, rat, in vivo, iv",0 µg·min/mL
same,Kp at 10 min,"in vivo [2]; male, Wistar, rat, in vivo, iv",0
same,Cl: clearance,in vivo [3],284 ± 10 mL·min/kg
same,Vd,in vivo [3],5.52 ± 0.558 L/kg
same,half-life,in vivo [3],12.4 ± 0.9 min
same,clearance,in vivo [3]; Cl: clearance,284 ± 10.4 mL/min/kg
same,C0,"[4]; iv, 200 mg/kg",higher than 80 μg/mL
same,terminal t1/2,"[4]; iv, 200 mg/kg",280 min
same,Cmax,"[4]; po, 75 mg/kg",~300 ng/mL
same,Cmax,"[4]; po, 200 mg/kg",about 11 μg/mL
same,AUC in CSF to last time of detection,in vivo [5],0 µg·min/mL
same,Tmax: time of Cmax in CSF,in vivo [5],0 h
Oc1ccc(/C=C/c2cc(O)cc(O)c2)cc1 [resveratrol],most effective concentration in increasing the viability of PC12 cells,PC12 cells [6],25 µM
"[Cl-].[K+] [K^+, reference compound]",dopamine release,PC12 cells [7],4340 ± 265 pg/mL
"O=C/C=C/c1ccccc1 [Cinnamaldehyde, cinnamaldehyde]",Tmax: time of Cmax in the bloodstream,in vivo [1],40 min
same,F: absolute bioavailability,in vivo [1]; po,7.33 ± 0.37%
same,RB: relative bioavailability,in vivo [1]; po,100%
same,bioavailability,in vivo [1]; po,7%
same,AUC,"in vivo [2]; male, Wistar, rat, in vivo, iv",1610 ng·h/mL
same,AUC,in vivo [2]; [8],1610 ng·h/mL
same,Cmax,in vivo [2]; [8],2040 ± 360 ng/mL
same,Kp at 10 min,"in vivo [2]; male, Wistar, rat, in vivo, iv, rat, iv, 10 min from the end of infusion",0.156 ± 0.038
same,time within which CSF concentrations decreased to zero or near to zero,"in vivo [2]; rat CSF, iv 20 mg/kg",≤ 75 min
same,R: ratio of concentration between CSF and bloodstream at Tmax,"in vivo [2]; rat, iv, 10 min from the end of infusion",0.16 ± 0.04
same,Vd,in vivo [3],1.32 ± 0.19 L/kg
same,clearance,in vivo [3],39.5 ± 1.7 mL/min/kg
same,half-life,in vivo [3],23.1 ± 1.6 min
same,oral LD50,rats; oral,about 3 g/kg
same,intravenous dose known to induce toxicity,"rats; rats, iv",25 mg/kg
same,intravenous dose that appears lethal,"rats; rats, iv",30 mg/kg
same,C0,"[4]; iv, 20 mg/kg",about 0.5 μg/mL
same,C0,"[4]; iv, 25 mg/kg",about 20 mg/mL
same,F (oral bioavailability),[4]; po,less than 20%
same,AUC in CSF to last time of detection,in vivo [5],0 µg·min/mL
same,Tmax: time of Cmax in CSF,in vivo [5],0 h

# Reference: paper PMC9862186 (International Journal of Molecular Sciences, 2023)
